# According to patent US20100226889A1, “HCV Combination Therapies” (priority 2007, published 2010):
# “Also recorded” adds a separate entry of the source.
# Tests used:
# [1] = test system: HCV genotype 1; assay: Phase 1b trial, Study VX04-950-101; settings: subjects infected with HCV genotype 1
# [2] = test system: genotype 1 HCV; settings: PROVE 1
# [3] = Randomized, double-blind, placebo-controlled single-dose escalation study in healthy male volunteers; type: in vivo, human; settings: single doses, 25 mg to 1250 mg
# Procedure: Doses of 25 mg to 1250 mg were evaluated.
# [4] = Oral bioavailability of VX-950 (statement); settings: in vivo
# [5] = test system: VX-950-resistant variants of HCV; assay: IC50 shift of VX-950-resistant variants
structure (smiles),measurement,setting,value
CCC[C@H](NC(=O)[C@@H]1[C@H]2CCC[C@H]2CN1C(=O)[C@@H](NC(=O)[C@@H](NC(=O)c1cnccn1)C1CCCCC1)C(C)(C)C)C(=O)C(=O)NC1CC1 [VX-950],antiviral activity,[1],substantial antiviral activity
same,pharmacokinetics of telaprevir among the different racial/ethnic groups,[2],No differences were observed
same,serious / severe adverse events,[3],No serious adverse events were reported; also recorded: No adverse events were considered to be severe
same,tolerability,[3],well tolerated at all dose levels
same,oral bioavailability,[4],orally bioavailable
same,increase in IC50,[5],7-20 fold
